Test results published in the NIST ThermoML archive (doi:10.1021/je060238o).
Numbers after ± are expanded uncertainties.

Experiments:
[1] = refractive index (Na D-line) (dimensionless); settings: 298.15 K; 101.33 kPa; Liquid; Standard Abbe refractometry
[2] = Liquid; for mass density: 298.15 K, 101.33 kPa; for Normal boiling temperature: Ebulliometric method (Recirculating still)
[3] = xn = mol fraction of the nth substance listed; settings: 298.15 K, 101 kPa, Liquid
[4] = refractive index (Na D-line) (dimensionless); xn = mol fraction of the nth substance listed; settings: 298.15 K, 101 kPa, Liquid, Standard Abbe refractometry

CCC(C)CO (stereo unspecified) [2-methyl-1-butanol]
Settings | Normal boiling temperature [°C] | mass density [kg/m3] | refractive index
[1] | – | – | 1.40872 ± 0.00032
[2] | 128.78 ± 0.3 | 814.87 ± 0.27 | –

CCC(C)CO (stereo unspecified) [2-methyl-1-butanol] + CC(C)CO
Settings | mass density, [3] [kg/m3] | refractive index, [4]
x2 = 0.051 | 814.19 ± 0.27 | 1.40802 ± 0.00032
x2 = 0.101 | 813.53 ± 0.27 | 1.40742 ± 0.00032
x2 = 0.151 | 812.85 ± 0.27 | 1.40674 ± 0.00032
x2 = 0.2 | 812.17 ± 0.27 | 1.40606 ± 0.00032
x2 = 0.25 | 811.49 ± 0.27 | 1.40538 ± 0.00032
x2 = 0.3 | 810.75 ± 0.28 | 1.40466 ± 0.00032
x2 = 0.35 | 810.03 ± 0.28 | 1.40397 ± 0.00032
x2 = 0.401 | 809.29 ± 0.28 | 1.40328 ± 0.00032
x2 = 0.45 | 808.55 ± 0.28 | 1.40252 ± 0.00032
x2 = 0.5 | 807.79 ± 0.28 | 1.40178 ± 0.00032
x2 = 0.549 | 807.02 ± 0.28 | 1.40107 ± 0.00032
x2 = 0.599 | 806.25 ± 0.29 | 1.40029 ± 0.00033
x2 = 0.65 | 805.45 ± 0.29 | 1.39946 ± 0.00033
x2 = 0.701 | 804.63 ± 0.29 | 1.39866 ± 0.00033
x2 = 0.749 | 803.86 ± 0.29 | 1.3979 ± 0.00033
x2 = 0.8 | 803 ± 0.29 | 1.39706 ± 0.00033
x2 = 0.85 | 802.17 ± 0.29 | 1.3962 ± 0.00033
x2 = 0.899 | 801.17 ± 0.3 | 1.39533 ± 0.00033
x2 = 0.95 | 800.1 ± 0.3 | 1.3945 ± 0.00033

CC(C)CO [2-methyl-1-propanol]
Settings | Normal boiling temperature [°C] | mass density [kg/m3] | refractive index
[1] | – | – | 1.3937 ± 0.00033
[2] | 108 ± 0.3 | 797.84 ± 0.3 | –

CC(C)CO [2-methyl-1-propanol] + CCCCCO
Settings | mass density, [3] [kg/m3] | refractive index, [4]
x1 = 0.05 | 810.3 ± 0.27 | 1.4071 ± 0.00032
x1 = 0.1 | 809.7 ± 0.27 | 1.4065 ± 0.00032
x1 = 0.15 | 809.09 ± 0.27 | 1.40588 ± 0.00032
x1 = 0.2 | 808.51 ± 0.27 | 1.40524 ± 0.00032
x1 = 0.249 | 807.94 ± 0.28 | 1.4046 ± 0.00032
x1 = 0.299 | 807.34 ± 0.28 | 1.40394 ± 0.00032
x1 = 0.35 | 806.75 ± 0.28 | 1.40326 ± 0.00032
x1 = 0.4 | 806.13 ± 0.28 | 1.40259 ± 0.00032
x1 = 0.45 | 805.53 ± 0.28 | 1.40193 ± 0.00032
x1 = 0.499 | 804.9 ± 0.28 | 1.40124 ± 0.00032
x1 = 0.549 | 804.29 ± 0.28 | 1.40055 ± 0.00032
x1 = 0.6 | 803.64 ± 0.29 | 1.39983 ± 0.00032
x1 = 0.65 | 803.01 ± 0.29 | 1.3991 ± 0.00033
x1 = 0.699 | 802.41 ± 0.29 | 1.39834 ± 0.00033
x1 = 0.75 | 801.73 ± 0.29 | 1.39758 ± 0.00033
x1 = 0.8 | 801.07 ± 0.29 | 1.39683 ± 0.00033
x1 = 0.85 | 800.39 ± 0.29 | 1.39604 ± 0.00033
x1 = 0.9 | 799.67 ± 0.3 | 1.39524 ± 0.00033
x1 = 0.95 | 798.84 ± 0.3 | 1.39447 ± 0.00033

CC(C)CCO [3-methylbutan-1-ol]
Settings | Normal boiling temperature [°C] | mass density [kg/m3] | refractive index
[1] | – | – | 1.40515 ± 0.00032
[2] | 131.12 ± 0.3 | 806.78 ± 0.27 | –

CC(C)CCO [3-methylbutan-1-ol] + CC(C)CO
Settings | mass density, [3] [kg/m3] | refractive index, [4]
x2 = 0.051 | 805.95 ± 0.46 | 1.40469 ± 0.00032
x2 = 0.099 | 805.61 ± 0.46 | 1.40418 ± 0.00032
x2 = 0.15 | 805.25 ± 0.46 | 1.40371 ± 0.00032
x2 = 0.199 | 804.88 ± 0.46 | 1.40318 ± 0.00032
x2 = 0.254 | 804.48 ± 0.46 | 1.4026 ± 0.00032
x2 = 0.3 | 804.15 ± 0.46 | 1.40212 ± 0.00032
x2 = 0.35 | 803.77 ± 0.47 | 1.40161 ± 0.00032
x2 = 0.4 | 803.39 ± 0.47 | 1.40109 ± 0.00032
x2 = 0.445 | 803.05 ± 0.47 | 1.4006 ± 0.00032
x2 = 0.5 | 802.62 ± 0.47 | 1.39997 ± 0.00032
x2 = 0.549 | 802.23 ± 0.47 | 1.3994 ± 0.00032
x2 = 0.6 | 801.83 ± 0.47 | 1.39879 ± 0.00032
x2 = 0.65 | 801.42 ± 0.47 | 1.39821 ± 0.00032
x2 = 0.7 | 800.64 ± 0.48 | 1.39764 ± 0.00032
x2 = 0.751 | 800.19 ± 0.48 | 1.39701 ± 0.00033
x2 = 0.799 | 799.74 ± 0.48 | 1.39636 ± 0.00033
x2 = 0.849 | 799.27 ± 0.48 | 1.39567 ± 0.00033
x2 = 0.899 | 798.8 ± 0.48 | 1.395 ± 0.00033
x2 = 0.95 | 798.31 ± 0.48 | 1.39435 ± 0.00033

CCCCCO [pentan-1-ol]
Settings | Normal boiling temperature [°C] | mass density [kg/m3] | refractive index
[1] | – | – | 1.4077 ± 0.00032
[2] | 137.70 ± 0.3 | 810.96 ± 0.27 | –
